Source: patent publication US7560468B2, “Substituted 1,4,8-triazaspiro[4,5]decan-2-one compounds” (Gruenenthal GmbH, priority 2004, dated 2009)

Experiments:
5-HT transporter = molecular target: T1, 5-HT transporter (Rattus norvegicus, UniProt P31652); test: Inhibition of 5-HT uptake in synaptosomes; format: biochemical; conditions: for inhibition at 1 µM: read-out: Uptake_5-HT, rat, 1 μM, % inhibition
T1 construct: from tissue; host or cells: rat brain synaptosomes (marrow/medulla and pons), P2 fraction

[1] = test system: batrachotoxin (BTX) binding site of the sodium channel; test: Affinity to the batrachotoxin (BTX) binding site of the sodium channel; conditions: rat cerebrocortex synaptosomes, [3H]-batrachotoxinin A20 α-benzoate 10 nM; test concentration not given

T1 sequence (P31652 whole entry): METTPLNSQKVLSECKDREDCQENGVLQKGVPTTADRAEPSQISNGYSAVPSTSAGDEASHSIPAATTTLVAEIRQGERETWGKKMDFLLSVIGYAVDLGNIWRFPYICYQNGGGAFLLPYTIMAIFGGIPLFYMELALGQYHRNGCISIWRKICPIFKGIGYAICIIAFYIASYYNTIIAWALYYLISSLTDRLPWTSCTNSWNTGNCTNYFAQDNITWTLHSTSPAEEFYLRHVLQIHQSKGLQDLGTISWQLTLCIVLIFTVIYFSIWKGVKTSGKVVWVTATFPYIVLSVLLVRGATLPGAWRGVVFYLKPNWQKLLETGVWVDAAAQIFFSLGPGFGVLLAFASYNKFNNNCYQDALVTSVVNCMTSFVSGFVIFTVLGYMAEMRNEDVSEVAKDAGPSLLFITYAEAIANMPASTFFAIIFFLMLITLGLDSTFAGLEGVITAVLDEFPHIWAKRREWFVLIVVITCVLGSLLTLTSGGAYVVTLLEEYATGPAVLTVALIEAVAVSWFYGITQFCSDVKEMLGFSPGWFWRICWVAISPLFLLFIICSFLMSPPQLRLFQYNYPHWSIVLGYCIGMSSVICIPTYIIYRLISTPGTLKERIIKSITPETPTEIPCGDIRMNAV

Structure (SMILES)	Uptake_5-HT, rat, 1 μM, % inhibition (5-HT transporter) [%]	BTX Inhibition [1]	inhibition at 1 µM (5-HT transporter) [%]
CC(C)CC1NC2(CCN(C(=S)Nc3ccc(F)cc3)CC2)NC1=O (centres unmarked) [Example 112, 2-Isobutyl-3-oxo-1,4,8-triazaspiro[4,5]decan-8-thiocarboxylic acid (4-fluorobenzol)amide]	31	30	
CCCCN1C(=O)C(C(C)C)NC12CCN(C(=S)Nc1ccccc1F)CC2 (centres unmarked) [Example 122, 1-Butyl-3-isopropyl-2-oxo-1,4,8-triazaspiro[4,5]decan-8-thiocarboxylic acid (2-fluorobenzol)amide]	32	35	
COC(=O)c1ccc(CN2C(=O)CNC23CCN(S(=O)(=O)c2c(C)cc(C)cc2C)CC3)cc1 [Example 60, Methyl-4-[2-oxo-8-(2,4,6-trimethylbenzolsulfonyl)-1,4,8-triazaspiro[4,5]dec-1-ylmethyl]-benzoate]	65	59	
CCCCN1C(=O)C(C(C)C)NC12CCN(C(=S)Nc1cccc(C)c1)CC2 (centres unmarked) [Example 124, 1-Butyl-3-isopropyl-2-oxo-1,4,8-triazaspiro[4,5]decan-8-thiocarboxylic acid m-tolylamide]		41	47
CSCCC1NC2(CCN(C(=O)NCCc3ccccc3)CC2)N(Cc2ccc(F)cc2)C1=O (centres unmarked) [Example 239, 1-(4-Fluorobenzyl)-3-(2-methylsulfanylethyl)-2-oxo-1,4,8-triazaspiro[4,5]decan-8-carboxylic acid phenethylamide]		69	36
COCCNC(=S)N1CCC2(CC1)NC(CCSC)C(=O)N2Cc1ccc2ccccc2c1 (centres unmarked) [Example 121, 3-(2-Methylsulfanylethyl)-1-naphthalin-2-ylmethyl-2-oxo-1,4,8-triazaspiro[4,5]decan-8-thiocarboxylic acid (2-methoxy-ethyl)amide]		47	39
CC(C)C1NC2(CCN(S(=O)(=O)c3ccc4c(c3)CN(C(=O)C(F)(F)F)CC4)CC2)N(Cc2cccc(C#N)c2)C1=O (centres unmarked) [Example 77, 3-{3-Isopropyl-2-oxo-8-[2-(2,2,2-trifluoroacetyl)-1,2,3,4-tetrahydroisoquinolin-7-sulfonyl]-1,4,8-triazaspiro[4,5]dec-1-ylmethyl}-benzonitrile]		36	32
CCOC(=O)CN1C(=O)C(CCSC)NC12CCN(S(=O)(=O)Cc1ccccc1)CC2 (centres unmarked) [Example 57, Ethyl[3-(2-methylsulfanylethyl)-2-oxo-8-benzolmethansulfonyl-1,4,8-triazaspiro[4,5]dec-1-yl]-acetate]	32	34	
O=C(NC1CCCCC1)N1CCC2(CC1)NC(Cc1ccccc1)C(=O)N2Cc1ccccc1F (centres unmarked) [Example 238, 3-Benzyl-1-(2-fluorobenzyl)-2-oxo-1,4,8-triazaspiro[4,5]decan-8-carboxylic acid cyclohexylamide]		73	43
C=CCN1C(=O)C(C(C)C)NC12CCN(C(=S)Nc1cc(F)ccc1F)CC2 (centres unmarked) [Example 128, 1-Allyl-3-isopropyl-2-oxo-1,4,8-triazaspiro[4,5]decan-8-thiocarboxylic acid (2,5-difluorobenzol)amide]	57	33	
CSCCC1NC2(CCN(C(=S)NC(C)c3ccccc3)CC2)N(Cc2ccc3ccccc3c2)C1=O (centres unmarked) [Example 148, 3-(2-Methylsulfanylethyl)-1-naphthalin-2-ylmethyl-2-oxo-1,4,8-triazaspiro[4,5]decan-8-thiocarboxylic acid (1-benzol-ethyl)amide]	49	88	
CCOC(=O)CN1C(=O)C(Cc2ccccc2)NC12CCN(S(=O)(=O)c1ccccc1C(=O)OC)CC2 (centres unmarked) [Example 80, Methyl 2-(3-benzyl-1-ethoxycarbonylmethyl-2-oxo-1,4,8-triazaspiro[4,5]decan-8-sulfonyl)benzoate]		33	84
CC(C)C1NC2(CCN(C(=S)Nc3cc(Cl)ccc3Cl)CC2)N(Cc2ccccc2)C1=O (centres unmarked) [Example 136, 1-Benzyl-3-isopropyl-2-oxo-1,4,8-triazaspiro[4,5]decan-8-thiocarboxylic acid (2,5-dichlorobenzol)amide]	44	66	
Cc1ccc(S(=O)(=O)N2CCC3(CC2)NC(Cc2ccccc2)C(=O)N3Cc2ccccc2)cc1 (centres unmarked) [Example 45, 1,3-Dibenzyl-8-(toluol-4-sulfonyl)-1,4,8-triazaspiro[4,5]decan-2-one]	74	37	
COc1ccc(S(=O)(=O)N2CCC3(CC2)NC(Cc2ccccc2)C(=O)N3Cc2ccccc2)cc1OC (centres unmarked) [Example 29, 1,3-Dibenzyl-8-(3,4-dimethoxy-benzolsulfonyl)-1,4,8-triazaspiro[4,5]decan-2-one]	75	47	
CCCCN1C(=O)C(C(C)C)NC12CCN(C(=S)Nc1cc(Cl)ccc1Cl)CC2 (centres unmarked) [Example 117, 1-Butyl-3-isopropyl-2-oxo-1,4,8-triazaspiro[4,5]decan-8-thiocarboxylic acid (2,5-dichlorobenzol)amide]	33	44	

Structure (SMILES)	Uptake_5-HT, rat, 1 μM, % inhibition (5-HT transporter) [%]	BTX Inhibition [1]	inhibition at 1 µM (5-HT transporter) [%]
O=C(NCc1ccc(Cl)c(Cl)c1)N1CCC2(CC1)NC(Cc1ccccc1)C(=O)N2Cc1ccccc1F (centres unmarked) [Example 233, 3-Benzyl-1-(2-fluorobenzyl)-2-oxo-1,4,8-triazaspiro[4,5]decan-8-carboxylic acid 3,4-dichlorobenzylamide]		85	44
CCOc1ccc(NC(=O)N2CCC3(CC2)NC(CCSC)C(=O)N3Cc2ccc(F)cc2)cc1 (centres unmarked) [Example 243, 1-(4-Fluorobenzyl)-3-(2-methylsulfanylethyl)-2-oxo-1,4,8-triazaspiro[4,5]decan-8-carboxylic acid (4-ethoxy-benzol)amide]	40	48	
O=C1C(Cc2ccccc2)NC2(CCN(S(=O)(=O)c3ccccc3C(F)(F)F)CC2)N1Cc1ccccc1F (centres unmarked) [Example 81, 3-Benzyl-1-(2-fluorobenzyl)-8-(2-trifluoromethylbenzolsulfonyl)-1,4,8-triazaspiro[4,5]decan-2-one]	81	87	
CSCCC1NC2(CCN(C(=S)Nc3cccc(C#N)c3)CC2)N(Cc2ccc(F)cc2)C1=O (centres unmarked) [Example 192, 1-(4-Fluorobenzyl)-3-(2-methylsulfanylethyl)-2-oxo-1,4,8-triazaspiro[4,5]decan-8-thiocarboxylic acid (3-cyanobenzol)amide]	38	35	
CCOC(=O)CN1C(=O)C(Cc2ccccc2)NC12CCN(C(=S)Nc1ccccc1C(=O)OC)CC2 (centres unmarked) [Example 145, Methyl 2-[(3-benzyl-1-ethoxycarbonylmethyl-2-oxo-1,4,8-triazaspiro[4,5]decan-8-carbothioyl)amino]-benzoate]		69	67
CCCCN1C(=O)C(Cc2ccccc2)NC12CCN(S(=O)(=O)c1ccccc1C(F)(F)F)CC2 (centres unmarked) [Example 22, 3-Benzyl-1-butyl-8-(2-trifluoromethylbenzolsulfonyl)-1,4,8-triazaspiro[4,5]decan-2-one]	66	38	
CCOC(=O)CN1C(=O)C(Cc2ccccc2)NC12CCN(S(=O)(=O)c1ccc(Cl)s1)CC2 (centres unmarked) [Example 61, Ethyl[3-benzyl-8-(5-chlorothiophen-2-sulfonyl)-2-oxo-1,4,8-triazaspiro[4,5]dec-1-yl]-acetate]		50	61
C=CCN1C(=O)C(CCSC)NC12CCN(S(=O)(=O)c1c(C)cc(OC)c(C)c1C)CC2 (centres unmarked) [Example 79, 1-Allyl-8-(4-methoxy-2,3,6-trimethylbenzolsulfonyl)-3-(2-methylsulfanylethyl)-1,4,8-triazaspiro[4,5]decan-2-one]	37	67	
CSCCC1NC2(CCN(C(=O)Nc3cccc(C(C)=O)c3)CC2)N(Cc2ccccc2C#N)C1=O (centres unmarked) [Example 234, 1-(2-Cyanobenzyl)-3-(2-methylsulfanylethyl)-2-oxo-1,4,8-triazaspiro[4,5]decan-8-carboxylic acid (3-acetylbenzol)amide]	45	31	
C=CCNC(=S)N1CCC2(CC1)NC(CCSC)C(=O)N2Cc1ccccc1C#N (centres unmarked) [Example 129, 1-(2-Cyanobenzyl)-3-(2-methylsulfanylethyl)-2-oxo-1,4,8-triazaspiro[4,5]decan-8-thiocarboxylic acid allylamide]		36	41
O=C1C(Cc2ccccc2)NC2(CCN(S(=O)(=O)c3ccccc3)CC2)N1Cc1ccccc1F (centres unmarked) [Example 71, 8-Benzolsulfonyl-3-benzyl-1-(2-fluorobenzyl)-1,4,8-triazaspiro[4,5]decan-2-one]	76	85	
CCCCN1C(=O)C(CCSC)NC12CCN(C(=O)Nc1ccc(OCC)cc1)CC2 (centres unmarked) [Example 221, 1-Butyl-3-(2-methylsulfanylethyl)-2-oxo-1,4,8-triazaspiro[4,5]decan-8-carboxylic acid (4-ethoxy-benzol)amide]	47	44	
CC(C)C1NC2(CCN(C(=S)Nc3cc(Cl)cc(Cl)c3)CC2)N(Cc2ccccc2)C1=O (centres unmarked) [Example 177, 1-Benzyl-3-isopropyl-2-oxo-1,4,8-triazaspiro[4,5]decan-8-thiocarboxylic acid (3,5-dichlorobenzol)amide]	36	46	
CCOC(=O)CN1C(=O)C(Cc2ccccc2)NC12CCN(S(=O)(=O)c1cccs1)CC2 (centres unmarked) [Example 48]	85	30	
CCCCOc1ccc(S(=O)(=O)N2CCC3(CC2)NCC(=O)N3Cc2ccccc2C#N)cc1 [Example 5, 2-[8-(4-Butoxy-benzolsulfonyl)-2-oxo-1,4,8-triazaspiro[4,5]dec-1-ylmethyl]-benzonitrile]	30	59	
